From patent US8927579B2, “Male contraceptive” (priority 2007, dated 2015)
Counter-ions that a name gives are not always drawn.

Tests used:
[1] = system: longitudinal muscle of human vas deferens; assay: IC50 against contractions evoked by high K+ (120 mM) in the presence of FPL 64176, longitudinal muscle strips; settings: Homo sapiens; contractions evoked by K+ (120 mM) in the presence of FPL 64176 (1 μM); means ± S.E.M.
From the text: (§1) Human vas deferens specimens were obtained after elective vasectomies of healthy fertile men. College ethical approval and the consent of patients were obtained. The specimens were placed in ice-cold Krebs' medium, dissected-free of connective tissue/blood vessels and cut longitudinally into strips (longitudinal muscle preparations; 5-10 mm long & 1 mm wide) or transversely into rings (circular muscle preparations; 3 mm in length). The longitudinal and circular muscle preparations were then set up for tension recording (resting tension 5-7 mN) in a Perspex chamber superfused at 2 ml per min with Krebs' medium (36° C.) composed of (mM): NaCl, 118.8; NaHCO3, 25; KCl, 4.7; CaCl2.2H2O, 2.5; KH2PO4, 1.2; MgSO4.7H2O, 1.2; glucose, 11.1; ascorbic acid 0.1 and continuously gassed with 95% O2 and 5% CO2. Contractile responses were recorded via a Harvard-type force-displacement transducer. The analog signals were digitised using CIO-Das 16/Jr data acquisition software (Amplicon Liveline, Brighton, UK) and re-plotted on a microcomputer.
(§2) Tissues were equilibrated for 180 min in Krebs' medium containing inhibitors of extraneuronal and neuronal reuptake of noradrenaline, oestradiol (1 μM) and desipramine (0.1 μM) respectively, inhibitors of catechol-O-methyltransferase and monoamine oxidase, tropolone (10 μM) and iproniazid (10 μM) respectively and the β-adrenoceptor blocker, propranolol (1 μM). At the end of the equilibration period, the tissues were stimulated with noradrenaline (100 μM). […] After a contact time of 30-40 min in this medium, different experimental protocols (described below) were adopted in order to • (a) Elucidate the contractile actions of L-type Ca^2+ agonists such as FPL 64176 or Bay K 8644. In these experiments, tissues were exposed to FPL 64176 (0.1-10 μM added cumulatively) or in separate experiments Bay K 8644 (0.1-10 μM added cumulatively). • (b) Investigate the effects of various diphenylalkylamines and conventional L-type Ca^2+ antagonists (methoxyverapamil or nifedipine) on contractions evoked by high concentrations of extracellular potassium (high [K^+]o) in the presence of L-type Ca^2+ agonists, FPL 64176 (1 μM) or Bay K 8644 (1 μM). In this protocol, tissues were stimulated with high [K^+]O (10, 30 and 120 mM at 10-15 min intervals) in normal Krebs' medium, then exposed to L-type Ca^2+ agonists for 20-30 min and subsequently stimulated with high [K^+]O (10, 30 and 120 mM) in the presence of the drugs. These provided the initial responses. Following this and in the continuous presence of the L-type Ca^2+ agonists, the tissues were exposed additionally to L-type Ca^2+ antagonists (conventional or diphenylalkylamines) or drug-free vehicle medium. After contact times of 25-50 min the tissues were stimulated, first with high [K^+]O (either 30 mM or 120 mM) in order to take account of the well-documented use-dependent action of the diphenylalkylamine Ca^2+ antagonists. Following recovery from the test contraction and after a further 30-40 min, the tissues were then stimulated with high [K^+]o (10, 30 and 120 mM). This protocol is illustrated in FIGS. 3 and 4. The resulting contractions were measured (see below) and expressed as a percentage of corresponding initial responses to high [K^+]o evoked in the presence of L-type Ca^2+ agonists (i.e. before exposure to L-type Ca^2+ antagonists). […] Subsequent analysis (see below) was between contractions of drug-treated tissues and time-matched controls • (c) Determine the inhibitory potencies (IC50 values) of various diphenylalkylamines and phenothiazines and conventional L-type Ca^2+ antagonists (nifedipine and methoxyverapamil) against contractions evoked in longitudinal and circular muscle of human vas deferens by high [K^+]o (120 mM) in the presence of FPL 64176. In these experiments, tissues were stimulated with high [K^+]o (120 mM); sequentially in normal Krebs' medium and after 25-30 min exposure to the L-type Ca^2+ agonist, FPL 64176, (1 μM, Initial response). […]

[2] = system: circular muscle of human vas deferens; assay: IC50 against contractions evoked by high K+ (120 mM) in the presence of FPL 64176, circular muscle rings; settings: Homo sapiens; contractions evoked by K+ (120 mM) in the presence of FPL 64176 (1 μM); means ± S.E.M.
From the text: as §1, §2

[3] = system: longitudinal muscle of human vas deferens; assay: Inhibition of contractions evoked by high K+ in the presence of Bay K 8644, longitudinal muscle; settings: [K+]o 30 mM & 120 mM in the presence of Bay K 8644 (1 μM)
Protocol: (§3) Human vas deferens specimens were obtained after elective vasectomies of healthy fertile men. College ethical approval and the consent of patients were obtained. The specimens were placed in ice-cold Krebs' medium, dissected-free of connective tissue/blood vessels and cut longitudinally into strips (longitudinal muscle preparations; 5-10 mm long & 1 mm wide) or transversely into rings (circular muscle preparations; 3 mm in length). […] Contractile responses were recorded via a Harvard-type force-displacement transducer. […]
(§4) Tissues were equilibrated for 180 min in Krebs' medium containing inhibitors of extraneuronal and neuronal reuptake of noradrenaline, oestradiol (1 μM) and desipramine (0.1 μM) respectively, inhibitors of catechol-O-methyltransferase and monoamine oxidase, tropolone (10 μM) and iproniazid (10 μM) respectively and the β-adrenoceptor blocker, propranolol (1 μM). […] The resulting contractions were measured (see below) and expressed as a percentage of corresponding initial responses to high [K^+]o evoked in the presence of L-type Ca^2+ agonists (i.e. before exposure to L-type Ca^2+ antagonists). […]

[4] = system: circular muscle of human vas deferens; assay: Inhibition of contractions evoked by high K+ in the presence of Bay K 8644, circular muscle; settings: [K+]o 30 mM & 120 mM in the presence of Bay K 8644 (1 μM)
Protocol: as §3, §4

[5] = system: circular muscle of human vas deferens; assay: Inhibition at fixed concentration of contractions evoked by high K+ in the presence of FPL 64176, circular muscle; settings: [K+]o 30 mM in the presence of FPL 64176 (1.0 μM); drug 10 μM; hydrochloride
From the text: as §1
Tissues were equilibrated for 180 min in Krebs' medium containing inhibitors of extraneuronal and neuronal reuptake of noradrenaline, oestradiol (1 μM) and desipramine (0.1 μM) respectively, inhibitors of catechol-O-methyltransferase and monoamine oxidase, tropolone (10 μM) and iproniazid (10 μM) respectively and the β-adrenoceptor blocker, propranolol (1 μM). At the end of the equilibration period, the tissues were stimulated with noradrenaline (100 μM). […] After a contact time of 30-40 min in this medium, different experimental protocols (described below) were adopted in order to • (a) Elucidate the contractile actions of L-type Ca^2+ agonists such as FPL 64176 or Bay K 8644. In these experiments, tissues were exposed to FPL 64176 (0.1-10 μM added cumulatively) or in separate experiments Bay K 8644 (0.1-10 μM added cumulatively). • (b) Investigate the effects of various diphenylalkylamines and conventional L-type Ca^2+ antagonists (methoxyverapamil or nifedipine) on contractions evoked by high concentrations of extracellular potassium (high [K^+]o) in the presence of L-type Ca^2+ agonists, FPL 64176 (1 μM) or Bay K 8644 (1 μM). In this protocol, tissues were stimulated with high [K^+]O (10, 30 and 120 mM at 10-15 min intervals) in normal Krebs' medium, then exposed to L-type Ca^2+ agonists for 20-30 min and subsequently stimulated with high [K^+]O (10, 30 and 120 mM) in the presence of the drugs. These provided the initial responses. Following this and in the continuous presence of the L-type Ca^2+ agonists, the tissues were exposed additionally to L-type Ca^2+ antagonists (conventional or diphenylalkylamines) or drug-free vehicle medium. After contact times of 25-50 min the tissues were stimulated, first with high [K^+]O (either 30 mM or 120 mM) in order to take account of the well-documented use-dependent action of the diphenylalkylamine Ca^2+ antagonists. Following recovery from the test contraction and after a further 30-40 min, the tissues were then stimulated with high [K^+]o (10, 30 and 120 mM). This protocol is illustrated in FIGS. 3 and 4. The resulting contractions were measured (see below) and expressed as a percentage of corresponding initial responses to high [K^+]o evoked in the presence of L-type Ca^2+ agonists (i.e. before exposure to L-type Ca^2+ antagonists). […]

| Compound | IC50 [1] [µM] | IC50 [2] [µM] | inhibition at 1 µM ([3]; Homo sapiens, drug 1 μM, read-out: inhibition of longitudinal muscle contractions relative to time-matched controls) [%] | inhibition at 1 µM ([4]; Homo sapiens, drug 1 μM, read-out: inhibition of circular muscle contractions relative to time-matched controls) [%] | inhibition of circular muscle contractions compared to time-matched controls [5] [%] | inhibition of longitudinal muscle contractions relative to time-matched controls ([3]; drug 10 μM) | inhibition of circular muscle contractions relative to time-matched controls ([4]; drug 10 μM) |
| --- | --- | --- | --- | --- | --- | --- | --- |
| COC(=O)C1=C(C)NC(C)=C(C(=O)OC)C1c1ccccc1[N+](=O)[O-] [Nifedipine, nifedipine] | 0.00216 ± 0.0008 | 0.00219 ± 0.0005 | 66 to 73 | 66 to 73 |  |  |  |
| CC(NCCC(c1ccccc1)c1ccccc1)c1ccccc1 (stereo not drawn) [Fendiline, fendiline hydrochloride] | 3.8 ± 0.9 | 17.4 ± 5.8 |  |  | 35 | 73-80% | 0-20% |
